target: T1, glucagon receptor (Homo sapiens, UniProt P47871); test: glucagon receptor binding assay (125I-glucagon, CHO-HGR membranes); conditions: 20 μM; reported where 20 μM did not reduce glucagon binding by 50%
T1 construct: expressed in transfected cells; host or cells: Chinese Hamster Ovary cells (CHO-HGR), membranes
Protocol: The affinity for the glucagon receptor of compounds of the present invention is determined by the glucagon receptor binding assay. Membranes were prepared from Chinese Hamster Ovary cells expressing the glucagon receptor (CHO-HGR) by scraping the cells into hypotonic lysis buffer (10 mM Tris, pH 7.4, 2 mM EDTA, 5 mM MgCl2 and 1 mM PMSF) and subjecting the material to Polytron homogenization. Nuclei were removed by a 15-min 800×g centrifugation step conducted at 4° C. Membranes containing the receptor were collected by centrifugation at 15,000×gfor 15 min at 4° C. The membranes were washed once in lysis buffer and suspended in 0.25 M sucrose, 10 mM Tris, 5 mM EDTA, pH 7.4. The membranes were used in ligand binding studies as reported (Yoo-Warren, H., Willse, A. G., Hancock, N., Hull, J., McCaleb, M., and Livingston, J. Regulation of Rat Glucagon Receptor Expression. Biochem. Biophysical Res. Commun. 1994, 205, 347-353). In brief, 10 ug of membrane protein was incubated in 130 μl of binding buffer that consisted of 20 mM Tris, […], 1 mM EDTA, 1 mg/ml BSA, and 1 mg/ml bacitracin. The membrane suspension was placed in each well of a 96-well filtration plate (glass fiber type C, Millipore). […] Following the addition of test compound, 50 μl of ^125 I-glucagon (9 fmol) (NEN) was added to each well. Control wells contained membranes, 0.5% DMSO (solvent for test compounds), radiolabeled glucagon without and with excess native glucagon (1 μM) to establish nonspecific binding. The plates were incubated for 60 min at room temperature, and then filtered on a Mllipore vacuum apparatus. Following a wash step with ice-cold PBS/0.1% BSA, the filters were punched into test tubes, and the membrane bound radioactivity was determined.

T1 sequence (P47871 26-477): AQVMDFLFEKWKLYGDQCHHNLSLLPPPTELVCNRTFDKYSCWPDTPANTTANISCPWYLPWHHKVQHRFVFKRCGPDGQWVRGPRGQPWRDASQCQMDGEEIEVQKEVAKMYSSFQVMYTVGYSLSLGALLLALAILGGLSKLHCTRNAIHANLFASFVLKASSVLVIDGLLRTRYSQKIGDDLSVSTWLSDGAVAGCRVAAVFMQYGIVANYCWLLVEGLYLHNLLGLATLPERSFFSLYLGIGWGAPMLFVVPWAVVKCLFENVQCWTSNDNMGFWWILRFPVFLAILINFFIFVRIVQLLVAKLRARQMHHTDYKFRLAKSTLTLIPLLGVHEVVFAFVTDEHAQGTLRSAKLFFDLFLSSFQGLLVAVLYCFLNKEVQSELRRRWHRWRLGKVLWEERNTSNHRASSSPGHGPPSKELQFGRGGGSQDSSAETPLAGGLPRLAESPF

Row | SMILES | inhibition at 20 µM [%]
1 | CCCCCc1c(C(C)(C)O)nc(C(C)C)c(CO)c1-c1ccc(F)cc1 [Example 219, 2-(1-Hydroxy-1-methylethyl)-3-pentyl-4-(4-fluorophenyl)-5-hydroxymethyl-6-isopropylpyridine] | 5.11
2 | COC(=O)c1c(C(C)C)nc(C(C)C)c(CN2CCC(N3CCCCC3)CC2)c1-c1ccc(F)cc1 [Example 73, Methyl-2,6-diisopropyl-4-(4-fluorophenyl)-5-(4piperidinopiperidin-1-yl)methyl-3-pyridinecarboxylate] | 17.5
3 | CCCCCc1c(CN2CCOCC2)nc(C(C)C)c(CO)c1-c1ccc(F)cc1 [Example 199, 2-Morpholinomethyl-3-pentyl-4-(4-fluorophenyl)-5-hydroxymethyl-6-isopropylpyridine] | 8.67
4 | CCc1nc(CC)c(CO)c(-c2ccccc2)c1C=C(C)C [Example 5] | 12.4
5 | CCCCCc1c(CO)nc(C(C)C)c(CO)c1-c1ccc(F)cc1 [Example 200, 2,5-Bis(hydroxymethyl)-3-pentyl-4-(4-fluorophenyl)-6-isopropylpyridine] | 32.8
6 | CCCCCc1c(C(C)C)nc(C(C)C)c(CN(C)C)c1-c1ccc(F)cc1 [Example 122, 2,6-Diisopropyl-3-(dimethylamino)methyl-4-(4-fluorophenyl)-5-pentyl-pyridine] | 7.54
7 | CCCCCc1c(C)nc(C)c(CO)c1-c1ccccc1 [Example 4] | 1.98

The remaining lines, values ahead:

Row | inhibition at 20 µM [%] | SMILES
8 | 4.64 | CCCC=Cc1c(C(C)C)nc(C(C)C)c(CO)c1-c1ccc(-c2ccccc2)cc1 [Example 135, 2,6-Diisopropyl-3-hydroxymethyl-4-[4-(phenyl)phenyl]-5-(pent-1-enyl)pyridine]
9 | 13.8 | CCCC=Cc1c(C(C)C)nc(C(C)C)c(CO)c1-c1ccc(S(C)(=O)=O)cc1 [Example 176, 2,6-Diisopropyl-3-hydroxymethyl-4-[4-(methylsulfonyl)phenyl]-5-(pent-1-enyl)pyridine]
10 | 1.52 | CCCC=Cc1c(C)nc(C)c(CO)c1-c1ccccc1 [Example 3]
11 | 49.1 | CCCCCc1c(C(C)C)nc(C(C)C)c(CO)c1-c1ccc(F)c(C(C)O)c1 (stereo not drawn) [Example 182, 2,6-Diisopropyl-3-hydroxymethyl-4-[4-fluoro-3-(1-hydroxyethyl)phenyl]-5-pentylpyridine]
12 | 31.6 | CCC/C=C/c1c(C(C)C)nc(C(C)C)c(CO)c1-c1ccc(C(F)(F)F)cc1 [Example 125, 2,6-Diisopropyl-3-hydroxymethyl-4-[(4-trifluoromethyl)phenyl]-5(pent-1-enyl)pyridine]
13 | 21 | CCCC=Cc1c(C(C)C)nc(C(C)C)c(CO)c1-c1ccc(OCc2ccccc2)cc1 [Example 160, 2,6-Diisopropyl-3-hydroxymethyl-4-(4-benzyloxyphenyl)-5-(pent-1-enyl)pyridine]
14 | 24 | CCCCCc1c(C(C)C)nc(C(C)C)c(CO)c1-c1ccc(O)cc1 [Example 161, 2,6-Diisopropyl-3-hydroxymethyl-4-(4-hydroxyphenyl)-5-pentylpyridine]
15 | 17 | C=CCC(O)c1c(C(C)C)nc(C(C)C)c(CCCCC)c1-c1ccc(F)cc1 (racemic) [Example 116]
16 | 42.5 | CCCCCc1c(C(C)C)nc(C(C)C)c(CO)c1-c1ccc(CC)cc1 [Example 132, 2,6-Diisopropyl-3-hydroxymethyl-4-(4-ethylphenyl)-5-pentylpyridine]

same assay, conditions: 125I-glucagon; 60 min at room temperature; read-out: IC50

Row | SMILES | IC50 [nM]
17 | CC(C)c1nc2c(c(-c3ccc(F)cc3)c1C(C)O)CCCC2(C)C (stereo not drawn) [Example 231, 2-Isopropyl-3-(1-hydroxyethyl)-4-(4-fluorophenyl)-5,6,7,8-tetrahydro-8,8-dimethylquinoline] | 500
18 | CCCCCc1c(C(C)C)nc(C(C)C)c(C(O)C(F)(F)F)c1-c1ccc(F)cc1 (racemic) [Example 118, (±)-2,6-Diisopropyl-3-(2,2,2-trifluoro-1-hydroxy)ethyl-4-(4-fluoro-phenyl)-5-pentylpyridine] | 13000
19 | CCCCCc1c(C(C)=O)nc(C(C)C)c(CO)c1-c1ccc(F)cc1 [Example 218, 2-Acetyl-3-pentyl-4-(4-fluorophenyl)-5-hydroxymethyl-6-isopropylpyridine] | 6500
20 | CCCc1c(C(C)C)cc(C(C)C)c(C(C)O)c1-c1ccc(F)cc1O (stereo not drawn) [Example 242, 3,5-Diisopropyl-2-(1-hydroxyethyl)-6-propyl-4'-fluoro-2'-hydroxy-1,1'-biphenyl] | 5
21 | CCCc1c(C(C)C)cc(C(C)C)c(CO)c1-c1ccc(F)cc1O (racemic) [Example 241, 3,5-Diisopropyl-2-hydroxymethyl-6-propyl-4'-fluoro-2'-hydroxy-1,1'-biphenyl] | 110
22 | CC(C)c1nc2c(c(-c3ccc(F)cc3)c1C(C)O)CCC2(C)C (stereo not drawn) [Example 235, 2-Isopropyl-3-(1-hydroxyethyl)-4-(4-fluorophenyl)-7,7-dimethyl-5H-cyclopenta[b]pyridine] | 3100
23 | CCCCCc1c(C(C)C)cc(C(C)C)c(C(C)O)c1-c1ccc(F)cc1 (single isomer, unassigned; (+)) [Example 243, (+)-3,5-Diisopropyl-2-(1-hydroxyethyl)-6-pentyl-4'-fluoro-1,1'-biphenyl] | 86
24 | CCCCCc1c(C(C)C)cc(C(C)C)c(C(C)O)c1-c1ccc(F)cc1 (stereo not drawn) [Example 191, 3,5-Diisopropyl-2-(1-hydroxyethyl)-6-pentyl-4'-fluoro-1,1'-biphenyl] | 130

Other lines, results leading:

Row | IC50 [nM] | SMILES
25 | 16000 | CC(C)c1nc(C(C)C)c(CSc2cccc3ccccc23)c(-c2ccc(F)cc2)c1CO [Example 51, 2,6-Diisopropyl-3-hydroxymethyl-4-(4-fluorophenyl)-5-(1-naphthylthio)-methylpyridine]
26 | 1700 | CC(C)c1ccc(SCc2c(C(C)C)nc(C(C)C)c(CO)c2-c2ccc(F)cc2)cc1 [Example 63, 2,6-Diisopropyl-3-hydroxymethyl-4-(4-fluorophenyl)-5-[(4-isopropyl-phenyl)thio]methylpyridine]
27 | 17000 | CCCC=Cc1c(C(C)C)nc(C(C)C)c(CO)c1-c1cccc(C)c1 [Example 139, 2,6-Diisopropyl-3-hydroxymethyl-4-(3-methylphenyl)-5-(pent-1-enyl)-pyridine]
28 | 1100 | Cc1cccc(SCc2c(C(C)C)nc(C(C)C)c(CO)c2-c2ccc(F)cc2)c1 [Example 57, 2,6-Diisopropyl-3-hydroxymethyl-4-(4-fluorophenyl)-5-[(3-methyl-phenyl)thio]methylpyridine]
29 | 1300 | CC(C)c1nc(C(C)C)c(CCCCc2ccccc2)c(-c2ccc(F)cc2)c1CO [Example 39]
30 | 700 | CCCCC=Cc1c(C(C)C)nc(C(C)C)c(CO)c1-c1ccc(F)cc1 [Example 19, 2,6-Diisproyl-3-hyroxymethyl-4-(4-fluorophenyl)-5-(1-hexenyl)-pyridine]
31 | 1100 | C=Cc1c(C(C)C)nc(C(C)C)c(CO)c1-c1ccc(F)cc1 [Example 22, 2,6Diisopropyl-3-hydroxymethyl-4-(4-fluorophenyl)-5-ethenylpyridine]
32 | 1300 | CCCCCc1c(CCc2ccccc2)nc(C(C)C)c(CO)c1-c1ccc(F)cc1 [Example 227, 2-Isopropyl-3-hydroxymethyl-4-(4-fluorophenyl)-5-pentyl-6-(2-phenylethyl)pyridine]
33 | 1000 | CCc1c(C(C)C)nc(C(C)C)c(CO)c1-c1ccc(F)cc1 [Example 26, 2,6Diisopropyl-3-hydroxymethyl-4-(4-fluorophenyl)-5-ethylpyridine]
34 | 18000 | CCCCCc1c(C(C)O)nc(C(C)C)c(CO)c1-c1ccc(F)cc1 (stereo not drawn) [Example 210, 2-(1-Hydroxyethyl)-3-pentyl-4-(4-fluorophenyl)-5-hydroxymethyl-6-isopropylpyridine]
35 | 20000 | CC(C)c1nc(C(C)C)c(CSc2ccc3ccccc3c2)c(-c2ccc(F)cc2)c1CO [Example 52, 2,6Diisopropyl-3hydroxymethyl-4-(4-fluorophenyl)-5-(2-naphthyl-thio)methlpyridine]
36 | 600 | CC(C)c1nc(C(C)C)c(C(C)O)c(-c2ccc(F)cc2)c1-c1ccccc1 (stereo not drawn) [Example 233, 2,6-Diisopropyl-3-(1-hydroxyethyl)-4-(4-fluorophenyl)-5-phenylpyridine]
37 | 1800 | CCCCCCCCc1c(C(C)C)nc(C(C)C)c(CO)c1-c1ccc(F)cc1 [Example 36, 2,6-Diisopropyl-3-hydroxymethyl-4-(4-fluorophenyl)-5-octylpyridine]
38 | 1000 | Cc1cccc(CCc2c(C(C)C)nc(C(C)C)c(CO)c2-c2ccc(F)cc2)c1 [Example 44, 2,6-Diisopropyl-3-hydroxymethyl-4-(4-fluorophenyl)-5-[2-(3-methyl-phenyl)ethyl]pyridine]

same assay, conditions: IC50, 125I-glucagon; 60 min at room temperature

Row | SMILES | IC50 [nM]
39 | CCCCCc1c(C)nc(C(C)C)c(CO)c1-c1ccc(F)cc1 [Example 197, 2-Isopropyl-3-hydroxymethyl-4-(4-fluorophenyl)-5-pentyl-6-methyl-pyridine] | 7000

Source: US6218431A, “Substituted biphenyls” (Bayer Corporation, priority 1997, dated 2001)
